Assay: Solubility of triclosan in aqueous solutions, filtration methodology (filtrate analyzed for triclosan)
Assay type: physicochemical
Description: In the first set of experiments, the solubility of triclosan in the presence/ absence of KCl was measured using a filtration methodology in which the filtrate was analyzed for triclosan.
In the following experiments, triclosan solubility was measured with increasing concentrations of hydroxypropyl-beta-cyclodextrin (no SLS, no KCl).
In the next experiments, triclosan solubility was measured in the presence of hydroxypropyl-beta-cyclodextrin along with SLS and KCl.

## Oc1cc(Cl)ccc1Oc1ccc(Cl)cc1Cl [Triclosan, 2,4,4′-trichloro-2′-hydroxy-diphenyl ether]
0% SLS - 0% (control)
  Appearance: Suspension and no precipitate
1.5% SLS - 0% KCl
  Appearance: Suspension and no precipitate
1.5% SLS - 3.75% KCl
  Appearance: Turbid and thick precipitate
Table 3, 0% SLS - 0% (control)
  Triclosan solubility, %: 0.012%
Table 3, 1.5% SLS - 0% KCl
  Triclosan solubility, %: 0.330%
Table 3, 1.5% SLS - 0% KCl, listed as triclosan
  Triclosan solubility, %: increased the solubility
Table 3, 1.5% SLS - 3.75% KCl
  Triclosan solubility, %: 0.110%
Table 3, 1.5% SLS - 3.75% KCl, listed as triclosan
  Triclosan solubility, %: decreased solubility
Table 4, 0% HPβCD in water (no SLS, no KCl)
  Triclosan solubility, %: 0.012%
Table 4, 10% HPβCD in water (no SLS, no KCl)
  Triclosan solubility, %: 0.510%
Table 4, 15% HPβCD in water (no SLS, no KCl)
  Triclosan solubility, %: 0.680%
Table 4, 20% HPβCD in water (no SLS, no KCl)
  Triclosan solubility, %: 0.710%
Table 5, 0% SLS
  Triclosan solubility, %: 0.012%
Table 5, 1.5% SLS - 3.75% KCl
  Triclosan solubility, %: 0.011%
Table 5, 1.5% SLS - 3.75 KCl - 10% HPbCD
  Triclosan solubility, %: 0.190%
Table 5, 1.5% SLS - 3.75 KCl - 20% HPbCD
  Triclosan solubility, %: 0.380%
No SLS, no KCl
  triclosan solubility with increasing concentrations of hydroxypropyl-beta-cyclodextrin: increased in a dose-dependent manner
With SLS and KCl
  triclosan solubility in the presence of hydroxypropyl-beta-cyclodextrin along with SLS and KCl: increased solubility
